These results are taken from patent publication US12577245B2, “Sulfonyl benzamide derivatives as Bcl-2 inhibitors” (ASCENTAGE PHARMA (SUZHOU) CO., LTD., priority 2021, dated 2026).

One assay concerns RS4; 11Bcl-2-G101V cells. Kind of assay: CellTiter-Glo (CTG) cell viability assay in RS4;11-Bcl-2-G101V cells. The class given is cell-based. The conditions noted are these: 72 h, 10% FBS, 3 days. Summed up:
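Luminescent ATP read-out (CellTiter-Glo) after 3-day compound treatment at 37 °C gave viability relative to vehicle, from which IC50 was fitted. Mutant Bcl-2 RS4;11 cells were seeded at 10000 per well and rested 4 h before dosing.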

In the next assay the target is Bcl-2 WT (Homo sapiens, UniProt P10415). As to the kind of experiment: Bcl-2 WT inhibition, fluorescence polarization (Flu-BIM tracer) binding assay. The conditions noted are these: FP; 20 nM Bcl2, 5 nM Flu-BIM, 1 h incubation; read-out: Bcl-2 w.t. (FP).
The next assay relates to MV-4-11 cells. Kind of assay: CCK-8 cell viability assay in MV-4-11 cells. The class given is cell-based. The conditions noted are these: Homo sapiens, MV4-11, 72 h, 10% FBS, 3 days. Summed up:
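IC50 values come from vehicle-normalized CCK-8 absorbance at 450 nm, read 1–4 h after reagent addition. Before that, MV-4-11 cells seeded at 20000 per well were cultured 3 days at 37 °C with a compound dilution series.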

Bcl-2 WT, sequence (P10415 whole entry): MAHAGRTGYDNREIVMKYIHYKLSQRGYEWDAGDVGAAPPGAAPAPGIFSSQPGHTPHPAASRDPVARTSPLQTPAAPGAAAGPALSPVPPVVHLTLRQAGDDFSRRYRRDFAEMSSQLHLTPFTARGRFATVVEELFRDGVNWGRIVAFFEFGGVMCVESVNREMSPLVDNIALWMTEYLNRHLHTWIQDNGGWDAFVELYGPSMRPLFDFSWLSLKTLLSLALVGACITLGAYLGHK

Turning to `CC1(C)CCC(CN2CCN(c3ccc(C(=O)NS(=O)(=O)c4ccc(NC[C@H]5CC[C@](C)(O)CC5)c([N+](=O)[O-])c4)c(Oc4cnc5[nH]ccc5c4)c3)CC2)=C(c2cc(-c3ccc(F)c(F)c3F)cs2)C1` [Example 46, 2-((1H-pyrrolo[2,3-b]pyridin-5-yl)oxy)-4-(4-((4,4-dimethyl-2-(4-(2,3,4-trifluorophenyl)thiophen-2-yl)cyclohex-1-en-1-yl)methyl)piperazin-1-yl)-N-((4-((((1r,4r)-4-hydroxy-4-methylcyclohexyl)methyl)amino)-3-nitrophenyl)sulfonyl)benzamide], the IC50 in the assay on RS4; 11Bcl-2-G101V cells was found to be 230 nM; at Bcl-2 WT, 22.5 nM; in the assay with MV-4-11 cells, 9 nM.
For `CC1(C)CCC(CN2CCN(c3ccc(C(=O)NS(=O)(=O)c4ccc(NC[C@H]5COCCO5)c([N+](=O)[O-])c4)c(Oc4cnc5[nH]ccc5c4)c3)CC2)=C(c2cc(-c3ccc(C(F)F)cc3)cs2)C1` [Example 48, (S)—N-((4-(((1,4-dioxan-2-yl)methyl)amino)-3-nitrophenyl)sulfonyl)-2-((1H-pyrrolo[2,3-b]pyridin-5-yl)oxy)-4-(4-((2-(4-(4-(difluoromethyl)phenyl)thiophen-2-yl)-4,4-dimethylcyclohex-1-en-1-yl)methyl)piperazin-1-yl)benzamide], in that order: 810 nM, 20.2 nM and 9 nM.
The like results for `CC1(C)CCC(CN2CCN(c3ccc(C(=O)NS(=O)(=O)c4ccc(NC[C@H]5CC[C@](C)(O)CC5)c([N+](=O)[O-])c4)c(Oc4cnc5[nH]ccc5c4)c3)CC2)=C(c2cc(-c3ccc(C(F)F)cc3)cs2)C1` [Example 49, 2-((1H-pyrrolo[2,3-b]pyridin-5-yl)oxy)-4-(4-((2-(4-(4-(difluoromethyl)phenyl)thiophen-2-yl)-4,4-dimethylcyclohex-1-en-1-yl)methyl)piperazin-1-yl)-N-((4-((((1r,4r)-4-hydroxy-4-methylcyclohexyl)methyl)amino)-3-nitrophenyl)sulfonyl)benzamide] were, in that order, 420 nM, 38.4 nM and 9 nM.
With `CC1(C)CCC(CN2CCN(c3ccc(C(=O)NS(=O)(=O)c4ccc(NC[C@H]5COCCO5)c([N+](=O)[O-])c4)c(Oc4cnc5[nH]ccc5c4)c3)CC2)=C(c2cc(-c3ccc(F)c(F)c3)cs2)C1` [Example 50, (S)—N-((4-(((1,4-dioxan-2-yl)methyl)amino)-3-nitrophenyl)sulfonyl)-2-((1H-pyrrolo[2,3-b]pyridin-5-yl)oxy)-4-(4-((2-(4-(3,4-difluorophenyl)thiophen-2-yl)-4,4-dimethylcyclohex-1-en-1-yl)methyl)piperazin-1-yl)benzamide], the IC50 was 1950 nM with RS4; 11Bcl-2-G101V cells, 30.4 nM on Bcl-2 WT and 65 nM in the assay on MV-4-11 cells.
In the case of `CC1(C)CCC(CN2CCN(c3ccc(C(=O)NS(=O)(=O)c4ccc(NC[C@H]5CC[C@](C)(O)CC5)c([N+](=O)[O-])c4)c(Oc4cnc5[nH]ccc5c4)c3)CC2)=C(c2cc(-c3ccc(F)c(F)c3)cs2)C1` [Example 51, 2-((1H-pyrrolo[2,3-b]pyridin-5-yl)oxy)-4-(4-((2-(4-(3,4-difluorophenyl)thiophen-2-yl)-4,4-dimethylcyclohex-1-en-1-yl)methyl)piperazin-1-yl)-N-((4-((((1r,4r)-4-hydroxy-4-methylcyclohexyl)methyl)amino)-3-nitrophenyl)sulfonyl)benzamide], the values for the IC50 in the assay on RS4; 11Bcl-2-G101V cells, at Bcl-2 WT and in the assay with MV-4-11 cells were 1140 nM, 35.5 nM and 52 nM, respectively.
The like results for `CC1(C)CCC(CN2CCN(c3ccc(C(=O)NS(=O)(=O)c4ccc(NC[C@H]5CC[C@](C)(O)CC5)c([N+](=O)[O-])c4)c(Oc4cnc5[nH]ccc5c4)c3)CC2)=C(c2cc(-c3cc(F)c(F)cc3F)cs2)C1` [Example 53, 2-((1H-pyrrolo[2,3-b]pyridin-5-yl)oxy)-4-(4-((4,4-dimethyl-2-(4-(2,4,5-trifluorophenyl)thiophen-2-yl)cyclohex-1-en-1-yl)methyl)piperazin-1-yl)-N-((4-((((1r,4r)-4-hydroxy-4-methylcyclohexyl)methyl)amino)-3-nitrophenyl)sulfonyl)benzamide] were, in that order, 430 nM, 27.8 nM and 9 nM.
For `CC1(C)CCC(CN2CCN(c3ccc(C(=O)NS(=O)(=O)c4ccc(NC[C@H]5CC[C@](C)(O)CC5)c([N+](=O)[O-])c4)c(Oc4cnc5[nH]ccc5c4)c3)CC2)=C(c2cc(-c3c(F)ccc(F)c3F)cs2)C1` [Example 54, 2-((1H-pyrrolo[2,3-b]pyridin-5-yl)oxy)-4-(4-((4,4-dimethyl-2-(4-(2,3,6-trifluorophenyl)thiophen-2-yl)cyclohex-1-en-1-yl)methyl)piperazin-1-yl)-N-((4-((((1r,4r)-4-hydroxy-4-methylcyclohexyl)methyl)amino)-3-nitrophenyl)sulfonyl)benzamide], the IC50 turned out to be 270 nM with RS4; 11Bcl-2-G101V cells, 22.8 nM on Bcl-2 WT and 7 nM in the assay on MV-4-11 cells.
For `CC1(C)CCC(CN2CCN(c3ccc(C(=O)NS(=O)(=O)c4ccc(NC[C@H]5CC[C@](C)(O)CC5)c([N+](=O)[O-])c4)c(Oc4cnc5[nH]ccc5c4)c3)CC2)=C(c2cc(-c3cc(F)cc(C#N)c3)cs2)C1` [Example 55, 2-((1H-pyrrolo[2,3-b]pyridin-5-yl)oxy)-4-(4-((2-(4-(3-cyano-5-fluorophenyl)thiophen-2-yl)-4,4-dimethylcyclohex-1-en-1-yl)methyl)piperazin-1-yl)-N-((4-((((1r,4r)-4-hydroxy-4-methylcyclohexyl)methyl)amino)-3-nitrophenyl)sulfonyl)benzamide], in that order: 1140 nM, 31.2 nM and 72 nM.
For `CC1(C)CCC(CN2CCN(c3ccc(C(=O)NS(=O)(=O)c4ccc(NC[C@H]5CC[C@](C)(O)CC5)c([N+](=O)[O-])c4)c(Oc4cnc5[nH]ccc5c4)c3)CC2)=C(c2cc(-c3ccc(C(C)(C)C#N)cc3)cs2)C1` [Example 56, 2-((1H-pyrrolo[2,3-b]pyridin-5-yl)oxy)-4-(4-((2-(4-(4-(2-cyanopropan-2-yl)phenyl)thiophen-2-yl)-4,4-dimethylcyclohex-1-en-1-yl)methyl)piperazin-1-yl)-N-((4-((((1r,4r)-4-hydroxy-4-methylcyclohexyl)methyl)amino)-3-nitrophenyl)sulfonyl)benzamide], in that order: 1910 nM, 16.1 nM and 68 nM.
Regarding `CN(C)c1ccccc1-c1csc(C2=C(CN3CCN(c4ccc(C(=O)NS(=O)(=O)c5ccc(NC[C@H]6COCCO6)c([N+](=O)[O-])c5)c(Oc5cnc6[nH]ccc6c5)c4)CC3)CCC(C)(C)C2)c1` [Example 58, (S)—N-((4-(((1,4-dioxan-2-yl)methyl)amino)-3-nitrophenyl)sulfonyl)-2-((1H-pyrrolo[2,3-b]pyridin-5-yl)oxy)-4-(4-((2-(4-(2-(dimethylamino)phenyl)thiophen-2-yl)-4,4-dimethylcyclohex-1-en-1-yl)methyl)piperazin-1-yl)benzamide], the IC50 in the assay with RS4; 11Bcl-2-G101V cells stood at 3050 nM; on Bcl-2 WT, 20.1 nM; in the assay with MV-4-11 cells it was 178 nM.
